These are literature values, as cited in patent US11109615B2, “Vitamin A composition” (NESTEC S.A., priority 2015, dated 2021).

The conditions of the data set: ambient conditions.

Consider `CC1=C(/C=C/C(C)=C/C=C/C(C)=C/C=C/C=C(C)/C=C/C=C(C)/C=C/C2=C(C)CCCC2(C)C)C(C)(C)CCC1` [β-carotene, All-trans-β-carotene], for which the maximum solubility was 0.08 g/100 g oil.
